Bridge positions count the residues as written; N and C are the ends. Square brackets hold non-standard residues; d marks the D form. Peptide text beside a SMILES is read from it.
target: T1, human SSTR-5 (Homo sapiens, UniProt P35346); experiment: Human SSTR-5 binding assay ([125I-Tyr11]somatostatin-14 displacement, membranes of transfected CHO-K1 cells); settings: ratio greater than one = more selective for SSTR-5 than for SSTR-2
T1 construct: expressed in transfected cells; host or cells: CHO-K1
T1 sequence (P35346 whole entry): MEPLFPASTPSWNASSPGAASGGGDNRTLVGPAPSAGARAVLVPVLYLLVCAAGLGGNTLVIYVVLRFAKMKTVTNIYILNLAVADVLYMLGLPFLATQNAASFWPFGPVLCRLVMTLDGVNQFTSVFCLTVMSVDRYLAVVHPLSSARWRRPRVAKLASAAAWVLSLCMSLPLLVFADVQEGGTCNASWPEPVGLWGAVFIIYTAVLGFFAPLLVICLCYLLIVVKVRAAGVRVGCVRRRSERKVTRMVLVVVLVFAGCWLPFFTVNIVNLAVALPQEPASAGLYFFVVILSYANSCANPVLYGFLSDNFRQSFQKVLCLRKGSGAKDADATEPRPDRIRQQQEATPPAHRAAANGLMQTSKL
Protocol: (2) Human SSTR-5 Binding Assay
CHO-K1 cells were transfected with the human SSTR-5 cDNA, described in Yamada, et al., Biochem Biophys. Res. Commun., 195-844 (1993) using standard techniques known in the molecular biological art. See, e.g., Patel, et al., Biochem. Biophys. Res. Comm. 198:605 (1994). Crude membranes were prepared by homogenization of the human SSTR-5 transfected CHO-K1 cells in 20 ml of ice-cold 50 mM Tris-HCl with a POLYTRON™ homogenizer (setting 6, 15 sec). Buffer was added to obtain a final volume of 40 ml, and the homogenate was centrifuged in a SORVAL™ SS-34 rotor at 39,000 g for 10 min at 0-4° C. The resulting supernatant was decanted and discarded. The pellet was rehomogenized in ice-cold buffer, diluted, and centrifuged as before. The final pellet was resuspended in the 10 mM Tris HCl and held on ice for the receptor binding assay.
The final assay volume was 0.3 ml. The incubations were terminated by rapid filtration through GF/C filters (pre-soaked in 0.3% polyethylenimine for 30 min) using a Brandel filtration manifold. Each tube and filter was then washed three times with 5 ml aliquots of ice-cold buffer.

SSTR-2/SSTR-5 (ratio of the Ki's for human SSTR-2 and human SSTR-5) | Molecule
4.94 | C[C@@H](O)[C@@H]1NC(=O)[C@H](CCCCN)NC(=O)[C@@H](Cc2c[nH]c3ccccc23)NC(=O)[C@H](Cc2ccccc2)NC(=O)[C@H](Cc2ccccc2)NC(=O)[C@H](N)CSSC[C@@H](C(N)=O)NC(=O)[C@H](Cc2ccccc2)NC1=O [Analog II, H2 -c[D-Cys-Phe-Phe-D-Trp-Lys-Thr-Phe-Cys] -NH2] (H-[dC]FF[dW]KTFC-NH2; disulfide 1-8)
12.1 | NCCCC[C@@H]1NC(=O)[C@@H](Cc2c[nH]c3ccccc23)NC(=O)[C@H](Cc2c[nH]c3ccccc23)NC(=O)[C@H](Cc2ccccc2)NC(=O)[C@@H](N)CSSC[C@@H](C(N)=O)NC(=O)[C@H](Cc2ccccc2)NC(=O)[C@H](CO)NC1=O [Analog III, H2 -c[Cys-Phe-Trp-D-Trp-Lys-Ser-Phe-Cys] -NH2] (H-CFW[dW]KSFC-NH2; disulfide 1-8)
20.8 | NCCCC[C@@H]1NC(=O)[C@@H](Cc2c[nH]c3ccccc23)NC(=O)[C@H](Cc2ccccc2)NC(=O)[C@H](Cc2ccccc2)NC(=O)[C@@H](N)CSSC[C@@H](C(N)=O)NC(=O)[C@H](Cc2ccccc2)NC(=O)[C@H](CO)NC1=O [Analog IV, H2 -c[Cys-Phe-Phe-D-Trp-Lys-Ser-Phe-Cys] -NH2] (H-CFF[dW]KSFC-NH2; disulfide 1-8)
53.1 | H2 -c[Cys-Asn-Phe-Phe-D-Trp-Lys-Thr-Phe-Cys]-NH2 [Analog V]
40.2 | H2 -c[Cys-Phe-Phe-D-Trp-Lys-Thr-Phe-Cys] -NH2 [Analog I]

From patent publication US6001801A, “Cyclic peptide analogs of somatostatin” (Biomeasure, Inc., priority 1998, dated 1999)
